Test [1] deals with HT-29 SF cells. Kind of test: Cell cycle distribution by flow cytometry (propidium iodide) and reversal of the DHEA effect. The class given is cell-based, human. Conditions: for cell morphology: HT-29 SF cells exposed to DHEA, data not shown.
In test [2] the test system is HT-29 SF cells. Kind of test: DHEA effect on cell growth (cell number, Coulter counter) and its reversal by supplements. Type of test: cell-based, human. Conditions: 12.5-200 μM, 24-72 hours.
Test [3] concerns Intracellular Adenosine. Kind of test: In vivo effect on adenosine levels in various rat tissues (HPLC, spectrofluorometric detection). Here is the method: Folinic acid (50 mg/kg) was administered intraperitoneally once daily for fourteen days. […] Hearts were removed from animals and flash frozen in liquid nitrogen with 10 seconds of death. Liver and lungs were removed en bloc and flash frozen within 30 seconds of death. Brain tissue was subsequently dissected.

Entries after “also recorded” stand apart in the source; their conditions may differ.

Turning to `C[C@]12CC[C@H](O)CC1=CC[C@@H]1[C@@H]2CC[C@]2(C)C(=O)CC[C@@H]12` [DHEA, (3β)-3-hydroxyandrost-5-en-17-one], the cell cycle distribution result in test [1] (200 μM DHEA, after 24 hours) is “increase in the percentage of cells in G1 and a decreased proportion of cells in S phase”. In addition, in test [1] (25-200 μM DHEA, 24-72 hours), the “effect on cell cycle (G1, S phase) with time of exposure (in words)” value was “G1 block in HT-29 SF cells in a time-and dose-dependent manner; also recorded: progressively reduced the proportion of cells in S phase”. Besides, the cell morphology result in test [1] is recorded as “acquiring a rounded shape”. The “inhibition of growth of HT-29 SF cells (in words)” value in test [2] was “time- and dose-dependent inhibition of growth”. The “effect on tissue adenosine levels (in words)” value in test [3] (rat, in vivo) is on record as “multi-organ depletion of adenosine”.
For the molecule `C[C@@](O)(CCO)CC(=O)O` [MVA, mevalonic acid, reference compound], the “prevention of DHEA-induced S phase depletion” value in test [1] (25 FM DHEA, 72 hours) was “not after 72 hours”. Besides, in test [1], the cell morphology result is listed as “prevented only by the addition of MVA”.
Consider `C[C@]12CCC(=O)C=C1CC[C@@H]1[C@@H]2CC[C@@]2(C)[C@H]1CC[C@]2(C)O` [Methyltestosterone, methyltestosterone], for which the “effect on tissue adenosine levels (in words)” value in test [3] (rats, daily for two weeks) is given as “multi-organ depletion of adenosine”.
With `Nc1nc(=O)c2c([nH]1)NCC(CNc1ccc(C(=O)N[C@@H](CCC(=O)O)C(=O)O)cc1)N2C=O` (mixture of isomers) [Folinic Acid (F.A.), Folinic acid], the “effect on tissue adenosine levels (in words)” value was “increase in adenosine levels for all organs studied” in test [3] (rats, daily for two weeks, listed as Folinic acid) and “completely abrogated steroid-mediated adenosine depletion” in test [3] (rats, daily for two weeks, listed as folinic acid).

The values are drawn from patent publication US7456161B2 (Epigenesis Pharmaceuticals, LLC, priority 2001, dated 2008).
